Source: ChEMBL document CHEMBL1129187, “Synthesis, enzymatic phosphorylation and antiviral activity of acyclic dienyl phosphonate derivatives of guanine” (Bioorg Med Chem Lett, 1996)

Assays:
C8166 = experiment: Compound was evaluated for the inhibition of p24 viral antigen production in C-8166 cells.; type: functional, cell-based; details: Homo sapiens
Human betaherpesvirus 5 [1] = experiment: Inhibition of HCMV replication in MRC-5 cells; No inhibition; type: functional, organism-based; details: mrc5
Human betaherpesvirus 5 [2] = experiment: Inhibition of HCMV replication in Vero cells at 250 uM; No inhibition; type: functional, organism-based
MT4 [3] = experiment: Compound was evaluated for the concentration required to reduce the viability of MT-4 cells.; type: functional; details: Homo sapiens
MT4 [4] = experiment: Compound was evaluated for the inhibition of HIV-1 induced cytopathic effect in MT-4 cells.; type: functional, cell-based; details: Homo sapiens
[5] = Ratio of kinetic parameters of Vmax to Km was reported
Vero = experiment: Cytotoxicity against Vero cells up to 250 uM; Not active; type: functional, cell-based, Chlorocebus sabaeus
Human alphaherpesvirus 1 [6] = experiment: Tested for activity against HSV-1; Not active; type: functional, organism-based
Human alphaherpesvirus 1 [7] = experiment: Inhibitory activity against HSV-1 replication; type: functional, organism-based
Human alphaherpesvirus 1 [8] = experiment: Anti-HSV-1 activity at 300 uM; Not active; type: functional, organism-based

Row | Compound | EC50 (C8166) [µM] | IC50 (Human betaherpesvirus 5 [1]) | IC50 (Human betaherpesvirus 5 [2]) | CC50 (MT4 [3]) [µM] | EC50 (MT4 [4]) [µM] | Ratio [5] | IC50 (Vero) | IC50 (Human alphaherpesvirus 1 [6]) | IC50 (Human alphaherpesvirus 1 [7]) [µM] | IC50 (Human alphaherpesvirus 1 [8])
1 | C=C(/C=C/P(=O)(O)O)CCn1cnc2c(O)nc(N)nc21 | 8 | Not Active | Not Active | > 1000 | 49 | 102 | Not Active | Not Active | – | –
2 | Nc1ncnc2c1ncn2CCOCP(=O)(O)O [ADEFOVIR] | 1.5 | – | – | – | 20 | – | – | – | 117 | –
3 | C=C(/C=C/P(=O)(O)O)Cn1cnc2c(O)nc(N)nc21 | – | Not Active | Not Active | > 1000 | > 100 | 1.8 | Not Active | – | 119 | Not Active
4 | Cc1cn([C@H]2C[C@H](N=[N+]=[N-])[C@@H](CO)O2)c(=O)[nH]c1=O [ZIDOVUDINE] | 0.04 | – | – | – | 0.04 | – | – | – | – | –
5 | O=c1[nH]cnc2c1ncn2[C@H]1CC[C@@H](CO)O1 [DIDANOSINE] | 0.9 | – | – | > 1000 | 13 | – | – | – | – | –
6 | Nc1nc2c(ncn2[C@@H]2O[C@H](COP(=O)(O)O)[C@H](O)[C@@H]2O)c(=O)[nH]1 | – | – | – | – | – | 100 | – | – | – | –
